We go through 21 compounds from patent US20250197407A1 (Jazz Pharmaceuticals Ireland Limited, priority 2022, published 2025).

The target of the test is SOS1/KRAS WT (Homo sapiens (Human), UniProt Q07889). The test can be described thus: SOS1/KRAS WT HTRF binding assay (FRET-based protein-protein interaction). Particulars: inhibition of His6-SOS1 (aa564-1049, 40 nM) binding to GST-KRAS-WT (aa1-188, 40 nM); at least two independent replicates; read-out: SOS1/KRAS WT HTRF Binding assay pIC50 (converted). A digest of the protocol: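 Time-resolved FRET at 665 nm, read 4 hr after adding anti-GST-Eu(K) (4 nM) and anti-6His-XL665 (20 nM), tracked SOS1(aa564-1049)–KRAS WT(aa1-188) association. Both proteins were at 40 nM, pre-incubated 60 min at room temperature with compound. Max/min signals came from 0.05% DMSO and 10 μM reference, with four-parameter logistic IC50.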
Sequence of SOS1/KRAS WT (Q07889 564-1049): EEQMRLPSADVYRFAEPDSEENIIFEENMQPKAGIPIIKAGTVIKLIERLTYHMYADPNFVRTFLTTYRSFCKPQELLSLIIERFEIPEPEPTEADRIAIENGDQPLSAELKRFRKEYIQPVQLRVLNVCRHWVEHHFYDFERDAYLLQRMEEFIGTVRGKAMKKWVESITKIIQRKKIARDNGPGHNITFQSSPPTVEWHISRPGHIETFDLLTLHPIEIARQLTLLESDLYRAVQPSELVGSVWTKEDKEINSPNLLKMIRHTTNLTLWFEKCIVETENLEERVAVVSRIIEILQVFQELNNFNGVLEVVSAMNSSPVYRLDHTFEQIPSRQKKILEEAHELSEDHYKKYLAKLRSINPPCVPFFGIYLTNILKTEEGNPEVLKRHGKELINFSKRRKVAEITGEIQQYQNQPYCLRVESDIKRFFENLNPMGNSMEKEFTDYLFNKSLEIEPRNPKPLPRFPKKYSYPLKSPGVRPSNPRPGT
Consider `Cc1c(C2=CCNC2)cccc1[C@@H](C)Nc1nnc(C)c2cc3c(cc12)n(C)c(=O)n3C` [Compound 158, 1,3,8-trimethyl-5-[[(1R)-1-[3-(2,5-dihydro-1H-pyrrol-3-yl)-2-methyl-phenyl]ethyl]amino]imidazo[4,5-g]phthalazin-2-one], for which the IC50 is 120 nM.
On to `CCOC1(C)C(=O)N(C)c2cc3c(C)nnc(N[C@H](C)c4cccc(C(F)(F)CO)c4C)c3cc21` (stereo partly drawn) [Compound 199, 3-ethoxy-1,3,8-trimethyl-5-[[(1R)-1-[3-(1,1-difluoro-2-hydroxy-ethyl)-2-methyl-phenyl]ethyl]amino]pyrrolo[3,2-g]phthalazin-2-one], for which the IC50 is 21.9 nM.
Next, `Cc1nnc(N[C@H](C)c2cccc(C(F)F)c2F)c2cc3c(cc12)n(C)c(=O)n3C(C)C` [Compound 43, 3-isopropyl-1,8-dimethyl-5-[[(1R)-1-[3-(difluoromethyl)-2-fluoro-phenyl]ethyl]amino]imidazo[4,5-g]phthalazin-2-one]: 2.82 nM; `Cc1c(C(F)F)cccc1[C@@H](C)Nc1nnc(C)c2cc3c(cc12)n(C)c(=O)n3C` [Compound 211, 5-[[(1R)-1-[3-(difluoromethyl)-2-methyl-phenyl]ethyl]amino]-1,3,8-trimethyl-imidazo[4,5-g]phthalazin-2-one]: 9.77 nM.
For `Cc1nnc(N[C@H](C)c2cccc(C(F)(F)F)c2)c2cc3c(cc12)OCC(=O)N3C` [Compound 23, 4,9-dimethyl-6-[[(1R)-1-[3-(trifluoromethyl)phenyl]ethyl]amino]pyridazino[4,5-g][1,4]benzoxazin-3-one], the IC50 is 44.7 nM.
For the compound `COCC1(C)C(=O)N(C)c2cc3c(N[C@H](C)c4cccc(C(F)(F)CO)c4)nnc(C)c3cc21` (stereo partly drawn) [Compound 106, 8-[[(1R)-1-[3-(1,1-difluoro-2-hydroxy-ethyl)phenyl]ethyl]amino]-3-(methoxymethyl)-1,3,5-trimethyl-pyrrolo[3,2-g]phthalazin-2-one], the IC50 is 12 nM.
On to `Cc1nnc(N[C@H](C)c2cccc(C(F)(F)CO)c2F)c2cc3c(cc12)C(C)(C)C(=O)N3C(C)C` [Compound 110, 1-isopropyl-3,3,5-trimethyl-8-[[(1R)-1-[3-(1,1-difluoro-2-hydroxy-ethyl)-2-fluoro-phenyl]ethyl]amino]pyrrolo[2,3-g]phthalazin-2-one], for which the IC50 was 7.08 nM.
Turning to `Cc1nnc(N[C@H](C)c2cccc(C(F)(F)CO)c2)c2cc3c(cc12)C(C)(C)C(=O)N3C(C)C` [Compound 82, 1-isopropyl-3,3,5-trimethyl-8-[[(1R)-1-[3-(1,1-difluoro-2-hydroxy-ethyl)phenyl]ethyl]amino]pyrrolo [2,3-g]phthalazin-2-one], the IC50 was 9.33 nM.
For `CCC1(OC)C(=O)N(C)c2cc3c(N[C@H](C)c4cccc(C(F)(F)C(C)(C)O)c4F)nnc(C)c3cc21` (stereo partly drawn) [Compound 204, 3-ethyl-3-methoxy-1,5-dimethyl-8-[[(1R)-1-[3-(1,1-difluoro-2-hydroxy-2-methyl-propyl)-2-fluoro-phenyl]ethyl]amino]pyrrolo[2,3-g]phthalazin-2-one], the IC50 is 10 nM.
Consider `COCCn1c(=O)n(C)c2cc3c(C)nnc(N[C@H](C)c4cccc(C(F)(F)CO)c4F)c3cc21` [Compound 37, 3-(2-methoxyethyl)-1,8-dimethyl-5-[[(1R)-1-[3-(1,1-difluoro-2-hydroxy-ethyl)-2-fluoro-phenyl]ethyl]amino]imidazo[4,5-g]phthalazin-2-one], for which the IC50 was 10.5 nM.
In the case of `Cc1nnc(N[C@H](C)c2cccc(C(F)(F)C(C)(C)O)c2)c2cc3c(cc12)C(C)(C)C(=O)N3C` [Compound 77, 1,3,3,5-tetramethyl-8-[[(1R)-1-[3-(1,1-difluoro-2-hydroxy-2-methyl-propyl)phenyl]ethyl]amino]pyrrolo [2,3-g]phthalazin-2-one] it was 11.2 nM; in that of `Cc1c([C@@H](C)Nc2nnc(C)c3cc4c(cc23)n(C(C)C)c(=O)n4C)cccc1C(F)(F)CO` [Compound 85, 3-isopropyl-1,8-dimethyl-5-[[(1R)-1-[3-(1,1-difluoro-2-hydroxy-ethyl)-2-methyl-phenyl]ethyl]amino]imidazo[4,5-g]phthalazin-2-one], 8.32 nM; in that of `Cc1nnc(N[C@H](C)c2cccc(C(F)(F)C(C)(C)O)c2)c2cc3c(cc12)C(C)(C)C(=O)N3C1CC1` [Compound 65, 1-cyclopropyl-3,3,5-trimethyl-8-[[(1R)-1-[3-(1,1-difluoro-2-hydroxy-2-methyl-propyl)phenyl]ethyl]amino]pyrrolo [2,3-g]phthalazin-2-one], 9.77 nM.
With `Cc1c([C@@H](C)Nc2nnc(C)c3cc4c(cc23)N(C(C)C)C(=O)C4(C)C)cccc1C(F)(F)CO` [Compound 79, 1-isopropyl-3,3,5-trimethyl-8-[[(1R)-1-[3-(1,1-difluoro-2-hydroxy-ethyl)-2-methyl-phenyl]ethyl]amino]pyrrolo[2,3-g]phthalazin-2-one], the IC50 is 6.76 nM.
In the case of `Cc1nnc(N[C@H](C)c2cccc(C(F)(F)F)c2F)c2cc3c(cc12)n(C)c(=O)n3C1CC1` [Compound 52, 3-cyclopropyl-1,8-dimethyl-5-[[(1R)-1-[2-fluoro-3-(trifluoromethyl)phenyl]ethyl]amino] imidazo[4,5-g]phthalazin-2-one] it was 8.13 nM.
Next, `Cc1c([C@@H](C)Nc2nnc(C)c3cc4c(cc23)n(C)c(=O)n4C)cccc1C(F)(F)CO` [Compound 10, 5-[[(1R)-1-[3-(1,1-difluoro-2-hydroxy-ethyl)-2-methyl-phenyl]ethyl]amino]-1,3,8-trimethyl-imidazo[4,5-g]phthalazin-2-one]: 9.12 nM.
Next, `COC1(C)C(=O)N(C)c2cc3c(N[C@H](C)c4cc(F)cc(C(F)(F)CO)c4C)nnc(C)c3cc21` (stereo partly drawn) [Compound 183, 3-methoxy-1,3,5-trimethyl-8-[[(1R)-1-[3-(1,1-difluoro-2-hydroxy-ethyl)-5-fluoro-2-methyl-phenyl]ethyl]amino]pyrrolo[2,3-g]phthalazin-2-one]: 11 nM; `Cc1nnc(N[C@H](C)c2cccc(C(F)(F)CO)c2F)c2cc3c(cc12)n(C)c(=O)n3C` [Compound 7, 5-[[(1R)-1-[3-(1,1-difluoro-2-hydroxy-ethyl)-2-fluoro-phenyl]ethyl]amino]-1,3,8-trimethyl-imidazo[4,5-g]phthalazin-2-one]: 17.4 nM; `COC1(C)C(=O)N(C)c2cc3c(N[C@H](C)c4cc(F)cc(C(F)(F)C(C)(C)O)c4)nnc(C)c3cc21` (stereo partly drawn) [Compound 175, 3-methoxy-1,3,5-trimethyl-8-[[(1R)-1-[3-(1,1-difluoro-2-hydroxy-2-methyl-propyl)-5-fluoro-phenyl]ethyl]amino]pyrrolo[2,3-g]phthalazin-2-one]: 14.5 nM.
Turning to `CCOC1(C)C(=O)N(C)c2cc3c(C)nnc(N[C@H](C)c4cccc(C(F)(F)CO)c4F)c3cc21` (stereo partly drawn) [Compound 201, 3-ethoxy-1,3,8-trimethyl-5-[[(1R)-1-[3-(1,1-difluoro-2-hydroxy-ethyl)-2-fluoro-phenyl]ethyl]amino]pyrrolo[3,2-g]phthalazin-2-one], the IC50 was 18.2 nM.
In the case of `Cc1c([C@@H](C)Nc2nnc(C)c3cc4c(cc23)N(C)C(=O)C4(C)C)cccc1C(F)(F)C(C)(C)O` [Compound 108, 1,3,3,5-tetramethyl-8-[[(1R)-1-[3-(1,1-difluoro-2-hydroxy-2-methyl-propyl)-2-methyl-phenyl]ethyl]amino]pyrrolo[2,3-g]phthalazin-2-one] it was 10.5 nM.
